The values that follow come from ChEMBL document CHEMBL1782017, “Synthesis and biological evaluation of new flavonoid fatty acid esters with anti-adipogenic and enhancing glucose consumption activities” (2011).

In assay [1] the test system is 3T3-L1. Description: Glucose consumption in differentiated mouse 3T3L1 cells in low-glucose medium after 24 hrs by glucose-oxidase method. It is filed as functional, cell-based.
The subject of assay [2] is 3T3-L1. Kind of assay: Increase in glucose consumption in differentiated mouse 3T3L1 cells in high-glucose medium at 100 ug/ml after 24 hrs by glucose-oxidase method relative to control. It is filed as functional.
The test system of assay [3] is 3T3-L1. Kind of assay: Antiproliferative activity against mouse 3T3L1 cells after 48 hrs by MTT assay. It is filed as functional. More on the design: concentration or dose not given beside the values. A general note: Tetrazolium assays rely on reduction of a dye to a coloured formazan, in cell work by metabolically active cells.
The subject of assay [4] is 3T3-L1. Kind of assay: Glucose consumption in differentiated mouse 3T3L1 cells in high-glucose medium at 100 ug/ml after 24 hrs by glucose-oxidase method (Rvb =3.12 +/- 0.32 mmol/L). It is filed as functional.
Assay [5] concerns 3T3-L1. Description: Inhibition of adipogenesis in mouse 3T3L1 cells at 100 umol/L after 8 days by Oil red O-staining. It is filed as functional. To be noted: 3T3-L1, 192 h.
Assay [6] relates to 3T3-L1. Kind of assay: Glucose consumption in differentiated mouse 3T3L1 cells in low-glucose medium at 100 ug/ml after 24 hrs by glucose-oxidase method (Rvb =2.35 +/- 0.19 mmol/L). It is filed as functional.
In assay [7] the test system is 3T3-L1. Kind of assay: Increase in glucose consumption in differentiated mouse 3T3L1 cells in low-glucose medium at 50 ug/ml after 24 hrs by glucose-oxidase method relative to control. It is filed as functional.
For assay [8], the system named is 3T3-L1. Kind of assay: Glucose consumption in differentiated mouse 3T3L1 cells in low-glucose medium at 50 ug/ml after 24 hrs by glucose-oxidase method (Rvb =2.41 +/- 0.22 mmol/L). It is filed as functional.
Assay [9] has as its system 3T3-L1. Kind of assay: Glucose consumption in differentiated mouse 3T3L1 cells in high-glucose medium after 24 hrs by glucose-oxidase method. It is filed as functional, cell-based.
The subject of assay [10] is 3T3-L1. Kind of assay: Glucose consumption in differentiated mouse 3T3L1 cells in high-glucose medium at 50 ug/ml after 24 hrs by glucose-oxidase method (Rvb =3.06 +/- 0.29 mmol/L). It is filed as functional.
Assay [11] deals with 3T3-L1. Description: Increase in glucose consumption in differentiated mouse 3T3L1 cells in low-glucose medium at 100 ug/ml after 24 hrs by glucose-oxidase method relative to control. It is filed as functional.

What is called inhibition is the share of the control response that was lost under treatment. As to `CCCCCCCC/C=C\CCCCCCCC(=O)Oc1ccc2c(c1)O/C(=C\c1ccc(OC)cc1)C2=O`, the Activity result in [1] was “Dose-dependent effect”; in [3], 22.18%; in assay [4], 6.05 mmol/L; in assay [6], 5.61 mmol/L; in [8], 4.94 mmol/L; in assay [9], “Dose-dependent effect”. The compound further registered an Activity in [10] of 5.48 mmol/L. Also, the “fold change (FC)” value in assay [2], in [7] and in [11] was 2.39 throughout. For the same compound, the inhibition at 100 µM in [5] came out at 14.3%.

On to `CCCCCCCC/C=C\CCCCCCCC(=O)Oc1ccc2c(=O)c(-c3ccc(OC)cc3)coc2c1` [OLEOYL FORMONONETIN], for which the Activity result was “Dose-dependent effect” in [1]; 10.91% in assay [3]; 7.49 mmol/L in [4]; 6.95 mmol/L in assay [6]; 5.01 mmol/L in assay [8]; “Dose-dependent effect” in assay [9]. The same compound gave an Activity in [10] of 6.52 mmol/L. This compound displayed an inhibition at 100 µM in [5] of 2.52%.

In the case of `CCCCC/C=C\C=C\CCCCCCCCC(=O)Oc1ccc2c(c1)C(=O)/C(=C/c1ccc(OC)c(OC)c1)O2`, the Activity entry in assay [1] is “Dose-dependent effect”; in assay [3] it was 20.72%; in [4], 5.08 mmol/L; in [6] it was 3.85 mmol/L; in assay [8], 2.99 mmol/L; in assay [9], “Dose-dependent effect”. For the same compound, the Activity in assay [10] is given as 3.71 mmol/L. Moreover, 100 µM produced 1.88% inhibition in assay [5].

`CCCCCCCC/C=C\CCCCCCCC(=O)Oc1ccc2c(c1)C(=O)/C(=C/c1ccc(OC)cc1)O2`: the Activity entry in assay [1] is “Dose-dependent effect”; in assay [3], 17.69%; in [4], 5.67 mmol/L; in assay [6], 5.05 mmol/L; in [8], 4.48 mmol/L; in assay [9] it was “Dose-dependent effect”. In assay [10], this compound registered an Activity of 4.91 mmol/L. This compound also showed an inhibition at 100 µM in [5] of 11.7%.

With `CCCCCCCC/C=C\CCCCCCCC(=O)Oc1ccc2c(=O)c(Cc3ccc(OC)cc3)coc2c1`, the Activity entry was “Dose-dependent effect” in assay [1]; 1.88% in assay [3]; 4.23 mmol/L in [4]; 3.38 mmol/L in assay [6]; 2.71 mmol/L in [8]; “Dose-dependent effect” in assay [9]. The Activity in [10] turned out to be 3.49 mmol/L. The same compound gave an inhibition at 100 µM in assay [5] of 47.5%.
